Results on one compound are retold here after patent publication US5188642A, “Glyphosate-resistant plants” (priority 1990, dated 1993).

One assay concerns MP4 cells. Nature of the assay: Culture of MP4 petunia suspension cells in MS media containing glyphosate. It is filed as cell-based. Conditions: 0.5 mM glyphosate (sodium salt). On the procedure: The starting cell line, designated as the MP4 line, was derived from a Mitchell diploid petunia (see, e.g., Ausubel 1980). The MP4 cells were suspended in Murashige and Skoog (MS) culture media, (GIBCO, Grand Island, N.Y.) All transfer involved the transfer of 10 ml of suspension culture into 50 ml of fresh media. Cultivation periods until the next transfer ranged from 10 to 14 days, and were based on visual indications that the culture was approaching saturation.
After two transfers, the surviving cells were transferred into fresh media containing 1.0 mM glyphosate. After two transfers at 1.0 mM, the surviving cells were transferred sequentially into 2.5 mM glyphosate, 5.0 mM glyphosate, and 10 mM glyphosate. The MP4-G cells were subsequently shown (by a Southern blot) to have about 15-20 copies of the EPSPS gene, due to a genetic process called "gene amplification" (see, e.g., Schimke 1982). Although spontaneous mutations might have occurred during the replication of any cell, there is no indication that any mutation or other modification of the EPSPS gene occurred during the gene amplification process. The only known difference between the MP4 and the MP4-G cells is that the MP4-G cells contain multiple copies of an EPSPS gene and possibly other genes located near it on the chromosomes of the cells.

The next assay has as its system cotton tumor tissue. Nature of the assay: Cotton tumor tissue growth on medium containing glyphosate. Conditions: 0.5 mM glyphosate. It is filed as cell-based. On the procedure: A plant transformation vector similar to pMON546 is prepared following the general procedure outlined in Example 1 except that the CTP/EPSPS coding sequence is obtained from cotton. Seeds of cotton (cultivator Delta Pine 50) are surface sterilized using sodium hypochlorite and germinated in vitro on a basal medium in the dark. After 2 weeks hypocotyls and cotyledons are cut into pieces and innoculated with a tumorous strain of A. tumefaciens containing the above described transformation vector and helper plasmid pGV3111. After 3 days coculture on MS basal medium, the explants are transferred to the same medium with 500 mg/l carbenicillin to kill the bacteria. After 2 to 4 weeks, tumor tissue is transferred to the same medium containing 0.5 mM glyphosate.
Control tissue was produced using tumorous A. tumefaciens cells containing the helper plasmid pGV3111 and pMON200.

The test system of assay [1] is leaf tissue from transgenic shoots of B. napus. Nature of the assay: Oil seed rape leaf tissue tolerance test on medium with glyphosate. The format is cell-based, Brassica napus. As to conditions: 0.5 mM glyphosate. On the procedure: The four terminal intervals from B. napus plants (growth chamber grown in soil) are surface sterilized in sodium hypochlorite and cut into 5 mm sections. The upper surface of each piece is inoculated with an overnight liquid culture of A. tumefaciens containing the above described transformation vector and helper plasmid pTiT37-SE and incubated for 2 to 3 days on nurse culture plates containing 1/10 MS medium with 1 mg/l BA. The explants are then transferred to MS medium containing 1 mg/l BA, 500 mg/l carbenicillin and 100 mg/l kanamycin. After 3 to 6 weeks, leaf tissue from transgenic shoots that have developed is transferred to the same medium but with 0.5 mM glyphosate instead of the kanamycin to test for tolerance.
Control tissue is prepared using A. tumefaciens cells containing helper plasmid pTiT37-SE and vector pMON200.

Assay [2] concerns potato stem explant tissue. As to conditions: tissue transformed with pMON542. On the procedure:
Potato--Shoot tips of virus-free Russet Burbank are subcultured on media containing MS major and minor salts, 0.17 g/l sodium dihygrogen phosphate, 0.4 mg/l thiamine hydrochloride, 0.1 g/l inositol, 3% sucrose, 1.5 g/l Gelrite™ (Kelco, Co ) at pH 5.6. Cultures are grown at 24C in a 16 hour photoperiod. Shoots are used approximately 3-4 weeks after subculturing. Stem internodes are cut into approximately 8 mm lengths and split lengthwise, then the cut surface is smeared with Agrobacterium carrying binary vector pMON542 and helper plasmid pTiT37-SE which had been streaked on an LB agar plate and grown for a few days. Stem sections are placed cut side down on the surface of the medium containing MS salts, MS organics, 3% sucrose, 2.25 mg/l BA, […] NAA, 10 mg/l GA, 1.5 g/l Gelrite at pH 5.6. After 4 days, the stem explants are transferred to the same medium but with carbenicillin at 500 mg/l and kanamycin as the selective agent at 0 or 300 mg/l. Two weeks after inoculation, the explants are moved onto medium of the same composition but without NAA.

In a further assay the test system is transgenic canola lines. The assay is described as follows: Glyphosate spray test, reproductive scores of transgenic canola (Example 20). The format is in vivo, Brassica napus. Conditions: 0.28 Kg/ha, 28 days after spraying; lines with A. thaliana meristematic promoter (pMON992) versus enhanced CaMV35S promoter only (pMON987); FIG. 11. How it is done:
The transgenic, differentiated plants obtained containing the variant EPSP synthase gene as described above were analyzed for resistance to glyphosate. The transgenic plants containing the Arabidopsis EPSP synthase gene (as described) directed by the Arabidopsis thaliana promoter as also described above contained pMON992 while those plants containing the Arabidopsis EPSP synthase gene driven only by the enhanced CaMV35S promoter contained pMON987. These transgenic plants were planted and the seed from the R° plants harvested, threshed and dried before planting for a glyphosate spray test. The progeny were planted in 4-inch square pots of Metro 350 and three types of slow release fertilizers. A goal of twenty seedlings from each R° plant is desirable for testing. Germination frequency is usually high but overplanting ensures that twenty seedlings are present. The plants were thinned down by selecting the twenty most vigorous and erect seedlings seven to ten days after planting. A negative control (non-transformed, "Westar" variety) was planted at the same time to maintain quality and display the results. The plants were maintained and grown in a greenhouse environment. A sixteen-hour photoperiod and a temperature of 21° C. (day) and 15° C. (night) was maintained. Water soluble Peters Pete Lite fertilizer with an analysis of 20-19-18 was applied once per week or as needed. […]

`O=C(O)CNCP(=O)(O)O` [glyphosate, N-phosphonomethylglycine]: the viability at 500 µM with MP4 cells (estimated, read-out: cells which survived, share of the starting population) is less than 1%. Further, in the assay with MP4 cells (MS media), the “ability of cells to reproduce” value was “large majority of cells were unable to reproduce”. Moreover, the tissue growth entry with cotton tumor tissue (pMON200 transformed tissue (control) and non-transformed tissue) is “is inhibited”; in the assay with cotton tumor tissue (tissue transformed with cotton CTP/EPSPS vector), “demonstrates glyphosate resistance by continuing growth”; in assay [1] (transformed (pMON200) and non-transformed controls) it was “are inhibited”; in assay [1] (transgenic tissue that expresses EPSPS), “are able to grow in the presence of glyphosate”. In addition, in assay [2], the resistance of tissue entry is given as “exhibits substantial resistance to glyphosate”. The “reproductive scores (scale 0-10)” value with transgenic canola lines is listed as “higher reproductive scores”.
